CCOc1nc2cccc(C(=O)OC(C)OC(=O)OC3CCCCC3)c2n1Cc1ccc(-c2ccccc2-c2nn[nH]n2)cc1 (stereo not given)
solubility (mole fraction)
Conditions	293.15 K	298.15 K	303.15 K	308.15 K	313.15 K	323.15 K	333.15 K	343.15 K
in acetone	0.00673	0.00783	0.00946	0.0111	0.0133	–	–	–
in acetonitrile	0.000582	–	0.000912	–	0.0016	0.00263	0.00441	–
in ethanol	–	–	0.00144	–	0.00235	0.00465	0.00824	0.0118
